Earlier results as cited in patent US20250332118A1, “NOVEL ORAL CARE FORMULATIONS FOR TREATMENT OF XEROSTOMIA” (priority 2022, published 2025).

Conditions: @ 79° F.

For CS(C)(=O)=O [MSM, Methylsulfonylmethane], the Water solubility is given as 34 % w/v.
